Consider 13 compounds from patent US12291519B2, “2-hydroxycycloalkane-1-carbamoyl” (Idorsia Pharmaceuticals Ltd, priority 2019, dated 2025).

One assay deals with human Gal-3 (hGal-3) (Homo sapiens (Human), UniProt P17931). The experiment in a line: Competitive binding assay: biotinylated hGal-3 binding to microplate-adsorbed asialofetuin (ASF). To be noted: Activity on hGal-3; binding of biotinylated hGal-3 to ASF-coated plates; mean values. How it is done:
(§1) Evaluation of Compound Inhibitory Activity (IC50)
The inhibitory activity of compounds is determined in competitive binding assays. […] Alternatively, and preferably, a human Gal-1 version in which all six cysteines are substituted by serines may be used.
Briefly, compounds are serially diluted in DMSO (working dilutions).
Plates are incubated for 3 hours at 4° C. then washed with cold assay buffer (3×50 uL), incubated for 1 hour with 25 μL/well of a streptavidin-peroxidases solution (diluted in assay buffer to 80 ng/mL) at 4° C., followed by further washing steps with assay buffer (3×50 uL). Finally, 25 μL/well of ABTS substrate is added.
(§2) The calculated IC50 values may fluctuate depending on the daily assay performance. Fluctuations of this kind are known to those skilled in the art. IC50 values from several measurements are given as mean values.

The next assay concerns the target human Gal-1 (hGal-1). The experiment in a line: Competitive binding assay: biotinylated hGal-1 binding to microplate-adsorbed asialofetuin (ASF). To be noted: Activity on hGal-1; binding of biotinylated hGal-1 to ASF-coated plates; mean values. How it is done: as §1
The inhibitory activity of compounds is determined in competitive binding assays. This spectrophotometric assay measures the binding of biotinylated human Gal-3 (hGal-3) or human Gal-1 (hGAl-1), respectively, to a microplate-adsorbed glycoprotein, asialofetuin (ASF) (Proc Natl Acad Sci USA. 2013 Mar. 26; 110(13):5052-7.). Alternatively, and preferably, a human Gal-1 version in which all six cysteines are substituted by serines may be used.
Briefly, compounds are serially diluted in DMSO (working dilutions). ASF-coated 384 well pates are supplemented with 22.8 μL/well of biotinylated hGal-3 or hGal-1 in assay buffer (i.e. 300-1000 ng/mL biotinylated hGal-3 or hGal-1) to which 1.2 μL of compound working dilutions are added and mixed.
Plates are incubated for 3 hours at 4° C. then washed with cold assay buffer (3×50 uL), incubated for 1 hour with 25 μL/well of a streptavidin-peroxidases solution (diluted in assay buffer to 80 ng/mL) at 4° C., followed by further washing steps with assay buffer (3×50 uL). Finally, 25 μL/well of ABTS substrate is added. OD (410 nm) is recorded after 30 to 45 min and IC50 values are calculated.
as §2

human Gal-3 (hGal-3), sequence (P17931 whole entry): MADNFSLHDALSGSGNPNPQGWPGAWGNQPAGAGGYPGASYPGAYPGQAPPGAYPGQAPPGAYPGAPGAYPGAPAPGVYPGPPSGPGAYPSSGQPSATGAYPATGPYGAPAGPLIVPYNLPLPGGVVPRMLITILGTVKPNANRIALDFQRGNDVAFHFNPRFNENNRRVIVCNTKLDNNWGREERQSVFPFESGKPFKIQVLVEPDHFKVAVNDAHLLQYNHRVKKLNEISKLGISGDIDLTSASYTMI
human Gal-1 (hGal-1), sequence (P09382 2-135 limits assumed): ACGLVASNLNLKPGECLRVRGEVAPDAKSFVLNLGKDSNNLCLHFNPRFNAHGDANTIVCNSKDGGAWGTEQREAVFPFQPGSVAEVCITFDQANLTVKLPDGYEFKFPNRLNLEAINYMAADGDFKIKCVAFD

With `O=C([C@@H]1O[C@H](CO)[C@H](O)[C@H](n2cc(-c3cc(F)c(F)c(F)c3)nn2)[C@H]1O)N(Cc1ccccc1)[C@H]1CCCC[C@@H]1O` [Example 1, (2R,3R,4S,5R,6R)-N-benzyl-3,5-dihydroxy-N-((1S,2S)-2-hydroxycyclohexyl)-6-(hydroxymethyl)-4-(4-(3,4,5-trifluorophenyl)-1H-1,2,3-triazol-1-yl)tetrahydro-2H-pyran-2-carboxamide], the IC50 – broadly, the concentration that gives 50% inhibition – on human Gal-3 (hGal-3) was determined as 154 nM; at human Gal-1 (hGal-1), 6500 nM.

`O=C([C@@H]1O[C@H](CO)[C@H](O)[C@H](n2cc(-c3cc(F)c(F)c(F)c3)nn2)[C@H]1O)N(Cc1cccc(Cl)c1)[C@H]1CCCC[C@@H]1O` [Example 2, (2R,3R,4S,5R,6R)-N-(3-chlorobenzyl)-3,5-dihydroxy-N-((1S,2S)-2-hydroxycyclohexyl)-6-(hydroxymethyl)-4-(4-(3,4,5-trifluorophenyl)-1H-1,2,3-triazol-1-yl)tetrahydro-2H-pyran-2-carboxamide]: the IC50 amounted to 301 nM on human Gal-3 (hGal-3) and 22800 nM on human Gal-1 (hGal-1).

Consider `C#Cc1cccc(CN(C(=O)[C@@H]2O[C@H](CO)[C@H](O)[C@H](n3cc(-c4cc(F)c(F)c(F)c4)nn3)[C@H]2O)[C@H]2CCCC[C@@H]2O)c1` [Example 3, (2R,3R,4S,5R,6R)-N-(3-ethynylbenzyl)-3,5-dihydroxy-N-((1S,2S)-2-hydroxycyclohexyl)-6-(hydroxymethyl)-4-(4-(3,4,5-trifluorophenyl)-1H-1,2,3-triazol-1-yl)tetrahydro-2H-pyran-2-carboxamide], for which the IC50 at human Gal-3 (hGal-3) is 471 nM; at human Gal-1 (hGal-1), > 100000 nM.

Regarding `O=C([C@@H]1O[C@H](CO)[C@H](O)[C@H](n2cc(-c3cc(F)c(F)c(F)c3)nn2)[C@H]1O)N(CCc1ccccc1)[C@H]1CCCC[C@@H]1O` [Example 4, (2R,3R,4S,5R,6R)-3,5-dihydroxy-N-((1S,2S)-2-hydroxycyclohexyl)-6-(hydroxymethyl)-N-phenethyl-4-(4-(3,4,5-trifluorophenyl)-1H-1,2,3-triazol-1-yl)tetrahydro-2H-pyran-2-carboxamide], the IC50 at human Gal-3 (hGal-3) was 677 nM; at human Gal-1 (hGal-1), > 100000 nM.

Regarding `O=C([C@@H]1O[C@H](CO)[C@H](O)[C@H](n2cc(-c3cc(F)c(F)c(F)c3)nn2)[C@H]1O)N(Cc1ccc(Cl)cc1)[C@H]1CCCC[C@@H]1O` [Example 5, (2R,3R,4S,5R,6R)-N-(4-chlorobenzyl)-3,5-dihydroxy-N-((1S,2S)-2-hydroxycyclohexyl)-6-(hydroxymethyl)-4-(4-(3,4,5-trifluorophenyl)-1H-1,2,3-triazol-1-yl)tetrahydro-2H-pyran-2-carboxamide], the IC50 at human Gal-3 (hGal-3) is 174 nM; on human Gal-1 (hGal-1), 18200 nM.

Consider `O=C([C@@H]1O[C@H](CO)[C@H](O)[C@H](n2cc(-c3cc(F)c(F)c(F)c3)nn2)[C@H]1O)N(Cc1ccccc1Cl)[C@H]1CCCC[C@@H]1O` [Example 6, (2R,3R,4S,5R,6R)-N-(2-chlorobenzyl)-3,5-dihydroxy-N-((1S,2S)-2-hydroxycyclohexyl)-6-(hydroxymethyl)-4-(4-(3,4,5-trifluorophenyl)-1H-1,2,3-triazol-1-yl)tetrahydro-2H-pyran-2-carboxamide], for which the IC50 on human Gal-3 (hGal-3) was found to be 71 nM; on human Gal-1 (hGal-1), 1920 nM.

Turning to `O=C([C@@H]1O[C@H](CO)[C@H](O)[C@H](n2cc(-c3cc(F)c(F)c(F)c3)nn2)[C@H]1O)N(Cc1ccccc1C(F)(F)F)[C@H]1CCCC[C@@H]1O` [Example 7, (2R,3R,4S,5R,6R)-3,5-dihydroxy-N-((1S,2S)-2-hydroxycyclohexyl)-6-(hydroxymethyl)-N-(2-(trifluoromethyl)benzyl)-4-(4-(3,4,5-trifluorophenyl)-1H-1,2,3-triazol-1-yl)tetrahydro-2H-pyran-2-carboxamide], the figures for the IC50 on human Gal-3 (hGal-3) and on human Gal-1 (hGal-1) were 57 nM and 1240 nM, respectively.

`O=C([C@@H]1O[C@H](CO)[C@H](O)[C@H](n2cc(-c3cc(F)c(F)c(F)c3)nn2)[C@H]1O)N(Cc1ccncc1Cl)[C@H]1CCCC[C@@H]1O` [Example 8, (2R,3R,4S,5R,6R)-N-((3-chloropyridin-4-yl)methyl)-3,5-dihydroxy-N-((1S,2S)-2-hydroxycyclohexyl)-6-(hydroxymethyl)-4-(4-(3,4,5-trifluorophenyl)-1H-1,2,3-triazol-1-yl)tetrahydro-2H-pyran-2-carboxamide]: the half-inhibitory concentration (IC50) at human Gal-3 (hGal-3) was found to be 169 nM; at human Gal-1 (hGal-1), 2490 nM.

Take `O=C([C@@H]1O[C@H](CO)[C@H](O)[C@H](n2cc(-c3cc(F)c(F)c(F)c3)nn2)[C@H]1O)N(Cc1cccnc1C(F)(F)F)[C@H]1CCCC[C@@H]1O` [Example 9, (2R,3R,4S,5R,6R)-3,5-dihydroxy-N-((1S,2S)-2-hydroxycyclohexyl)-6-(hydroxymethyl)-N-((2-(trifluoromethyl)pyridin-3-yl)methyl)-4-(4-(3,4,5-trifluorophenyl)-1H-1,2,3-triazol-1-yl)tetrahydro-2H-pyran-2-carboxamide]: the concentration for half-maximal inhibition (IC50) at human Gal-3 (hGal-3) was found to be 147 nM; on human Gal-1 (hGal-1) it was 1640 nM.

`O=C([C@@H]1O[C@H](CO)[C@H](O)[C@H](n2cc(-c3cc(F)c(F)c(F)c3)nn2)[C@H]1O)N(Cc1cnccc1C(F)(F)F)[C@H]1CCCC[C@@H]1O` [Example 10, (2R,3R,4S,5R,6R)-3,5-dihydroxy-N-((1S,2S)-2-hydroxycyclohexyl)-6-(hydroxymethyl)-N-((4-(trifluoromethyl)pyridin-3-yl)methyl)-4-(4-(3,4,5-trifluorophenyl)-1H-1,2,3-triazol-1-yl)tetrahydro-2H-pyran-2-carboxamide]: the IC50 at human Gal-3 (hGal-3) came out at 122 nM; at human Gal-1 (hGal-1), 1690 nM.

Consider `CO[C@@H]1[C@@H](n2cc(-c3cc(F)c(F)c(F)c3)nn2)[C@@H](O)[C@@H](CO)O[C@H]1C(=O)N(Cc1ccccc1C(F)(F)F)[C@H]1CCCC[C@@H]1O` [Example 11, (2R,3R,4S,5R,6R)-5-hydroxy-N-((1S,2S)-2-hydroxycyclohexyl)-6-(hydroxymethyl)-3-methoxy-N-(2-(trifluoromethyl)benzyl)-4-(4-(3,4,5-trifluorophenyl)-1H-1,2,3-triazol-1-yl)tetrahydro-2H-pyran-2-carboxamide], for which the figures for the IC50 at human Gal-3 (hGal-3) and at human Gal-1 (hGal-1) were 55 nM and 497 nM, respectively.

As to `CO[C@@H]1[C@@H](n2cc(-c3cc(F)c(F)c(F)c3)nn2)[C@@H](O)[C@@H](CO)O[C@H]1C(=O)N(Cc1ccccc1Cl)[C@H]1CCCC[C@@H]1O` [Example 12, (2R,3R,4S,5R,6R)-N-(2-chlorobenzyl)-5-hydroxy-N-((1S,2S)-2-hydroxycyclohexyl)-6-(hydroxymethyl)-3-methoxy-4-(4-(3,4,5-trifluorophenyl)-1H-1,2,3-triazol-1-yl)tetrahydro-2H-pyran-2-carboxamide], the IC50 was found to be 52 nM at human Gal-3 (hGal-3) and 497 nM at human Gal-1 (hGal-1).

With `O=C([C@@H]1O[C@H](CO)[C@H](O)[C@H](n2cc(-c3cc(F)c(F)c(F)c3)nn2)[C@H]1O)N(Cc1ncccc1C(F)(F)F)[C@H]1CCCC[C@@H]1O` [Example 13, (2R,3R,4S,5R,6R)-3,5-dihydroxy-N-((1S,2S)-2-hydroxycyclohexyl)-6-(hydroxymethyl)-N-((3-(trifluoromethyl)pyridin-2-yl)methyl)-4-(4-(3,4,5-trifluorophenyl)-1H-1,2,3-triazol-1-yl)tetrahydro-2H-pyran-2-carboxamide], the concentration for half-maximal inhibition (IC50) on human Gal-3 (hGal-3) came out at 255 nM; on human Gal-1 (hGal-1), 7250 nM.
